From patent publication US6436419B1, “Antimicrobial treatment of polymers” (The Regents of the University of California, priority 1998, dated 2002)

How the values were obtained:
[1] = Add-on rates of quaternary ammonium salts on dyed and undyed nylon fabrics and weight loss after Launder-Ometer washing; assay type: physicochemical; settings: for Add-on rate after 7 washes (%): Launder-Ometer, AATCC test method 61; for Total weight loss after the + 7 washes (%): after finishing and 7 Launder-Ometer washes
Protocol: Nylon fabrics were dyed with 1% on weight fabric (o.w.f.) dye solutions at 95° C. for 90 min. The liquor ratio was 1:50, and the pH of the dye bath was adjusted to pH=3.5 with acetic acid. The dyed fabrics were washed with the AATCC standard detergent after dyeing and then cured at 120° C. for 15 minutes.
The antibacterial finishing baths were prepared by dissolving quaternary ammonium salts in distilled water. The pH value was adjusted to pH=4 with acetic acid. The dyed nylon fabric was dipped in the antibacterial agent solution, padded to a wet pick up of about 60% and cured at an elevated temperature for an extended period.
The finished fabric was washed in a Launder-Ometer, according to AATCC Test Method 61-1994 to evaluate the washing durability. One cycle of Launder-Ometer washing test by this AATCC Test Method is equivalent to about five machine washes in a home laundry practice.
The nylon fabrics were first dyed with two different acid dyes at concentration of 1% on weight fabric (o.w.f) and then treated with the quaternary ammonium salts.
The weight loss of a fabric sample is calculated based on its total weight change after the finishing and washing.

[2] = as above; assay type: physicochemical; settings: 6% quaternary salt solution, pH = 3.7, cured 120° C. 30 minutes
[3] = nylon fabric dyed with Acid Blue 113 1% owf
[4] = nylon fabric dyed with Acid Red 88 1% owf

SMILES | Add-on rate after 7 washes (%) ([1]; Undyed nylon fabric) | Total weight loss after the + 7 washes (%) ([1]; Undyed nylon fabric) | Add-on rate after 7 washes (%) [1, 3] [%] | Total weight loss after the + 7 washes (%) [1, 3] [%] | Add-on rate after 7 washes (%) [1, 4] [%] | Total weight loss after the + 7 washes (%) [1, 4] [%] | Add-on rate (%) ([2]; Undyed nylon fabric) | Add-on rate (%) [2, 3] [%] | Add-on rate (%) [2, 4] [%]
CCCCCCCCCCCC[N+](C)(C)CC(O)C[N+](C)(C)CCCCCCCCCCCC.[Cl-].[Cl-] [Dimer, 1,3-Bis-(N,N-dimethyldodecylammonium chloride)-2-propanol] | −3.20 | −0.47 | −2.54 | −0.25 | −3.08 | −0.09 | 2.73 | 2.29 | 2.99
CCCCCCCCCCCC[N+](C)(C)C.[Br-] [DTAB, Dodecyltrimethyl ammonium bromide] | −3.51 | −1.00 | −3.48 | 0.28 | −3.39 | −0.04 | 2.51 | 3.86 | 3.35
CCCCCCCCCCCC[N+](C)(C)CC(O)CCl.[Cl-] (stereo not drawn) [Monomer, N-(3-chloro-2-hydroxypropyl)-N,N-dimethyldodecylammonium chloride] | −1.81 | −0.73 | −2.44 | −0.43 | −1.87 | −0.09 | 1.08 | 2.01 | 1.78
